Values of other authors as cited in patent publication US20070203190A1, “Hydroxylamines and derivatives for the inhibition of complement activation” (priority 2006, published 2007).

B1: CD59: blocks assembly of the MAC; proposed as a potential therapeutic agent (protein, UniProt P13987 26-102, looked up)
CD59 glycoprotein: LQCYNCPNPTADCKTAVNCSSDFDACLITKAGLQVYNKCWKFEHCNFNDVTTRLRENELTYYCCKKDLCNFNEQLEN

Tests used:
complement activation = conditions: in vivo animal models

| Molecule | suppression of complement activation (complement activation) | activity in vitro (MAC) |
| --- | --- | --- |
| sCR1: a recombinant form of complement receptor 1 known as soluble complement receptor 1 | suppress complement activation |  |
| B1 |  | limited activity |
